# Several values for one entry are separate records, joined by “and”; a condition that tells them apart may be missing. Equal entries are not always repeated. Where two headings read alike, the source gives them in different places.
# Key:
# p53 = experiment: Apoptotic markers assay, p53 level in A-549 cells; format: cell-based, human; conditions: control 65
# Description: (§1) The Bcl-2 protein family, comprising inducer proteins (Bax) and suppressor proteins (Bcl-2), primarily regulates apoptosis.
# A prime example of a gene product is the p53 protein, which affects apoptosis. The potential for p53 overexpression to induce apoptosis may elucidate the frequent deactivation of p53 enzymes by cancer cells during transformation.
# (§2) Appendix A gives more details.
# [1] = test system: A-549 (lung) cancer cell line; experiment: Antiproliferative assay, A-549; format: cell-based, human; conditions: read-out: Antiproliferative activity IC50 ± SEM, A-549
# Protocol: (§3) Table 1 presents the median inhibitory concentration (IC50) and GI50 (mean IC50) for the four cancer cell lines.
# (§4) Refer to Appendix A for additional information.
# (§5) To explore the antiproliferative potential of compounds propidium iodide fluorescence assay was performed using different cell lines such as Panc-1 (pancreas cancer cell line) [Panc-1-CTC (RRID:CVCL_VQ69)], MCF-7 (breast cancer cell line) [MCF-7 (RRID:CVCL_0031)], HT-29 (colon cancer cell line) [HT-29 (RRID:CVCL_0320)] and A-549 (epithelial cancer cell line)[A-549 (RRID:CVCL_0023)], respectively. All cell lines were obtained from ATCC (American Type Cell Culture).
# (§6) To calculate the total nuclear DNA, a fluorescent dye (propidium iodide, PI) is used which can attach to the DNA, thus offering a quick and precise technique. PI cannot pass through the cell membrane and its signal intensity can be considered as directly proportional to quantity of cellular DNA. Cells whose cell membranes are damaged or have changed permeability are counted as dead ones. The assay was performed by seeding the cells of different cell lines at a density of 3000-7500 cells/well (in 200 μl medium) in culture plates followed by incubation for 24 h at 37 °C in humidified 5% CO2 /95% air atmospheric conditions. The medium was removed; the compounds were added to the plates at 10 μM concentrations (in 0.1% DMSO) in triplicates, followed by incubation for 48 h. DMSO (0.1%) was used as control. After incubation, medium was removed followed by the addition of PI (25 μl, 50 μg/mL in water/medium) to each well of the plates. At -80 °C, the plates were allowed to freeze for 24 h, followed by thawing at 25 °C. A fluorometer (Polar-Star BMG Tech) was used to record the readings at excitation and emission wavelengths of 530 and 620 nm for each well. The percentage cytotoxicity of compounds was calculated using the following formula: […]
# [2] = test system: four cancer cell lines (A-549, MCF-7, Panc-1, HT-29); experiment: Antiproliferative assay, mean over the four cancer cell lines (GI50); format: cell-based, human; conditions: for IC50: mean IC50 of A-549, MCF-7, Panc-1, HT-29
# Description: as §3, §4
# All cell lines were obtained from ATCC (American Type Cell Culture). […]
# Bax = experiment: Apoptotic markers assay, Bax level in A-549 cells; format: cell-based, human; conditions: for Bax level: control 60; for Bax fold change: relative to untreated control
# Protocol: as §1, §2
# Bring all reagents, except the human Bax-α Standard, to room temperature for at least 30 minutes prior to opening. The human Bax-α Standard solution should not be left at room temperature for more than 10 minutes. All standards, controls and samples should be run in duplicate. Refer to the Assay Layout Sheet to determine the number of wells to be used and put any remaining wells with the desiccant back into the pouch and seal the ziploc. Store unused wells at 4 °C. Pipet 100 μL of Assay Buffer into the S0 (0 pg/mL standard) wells. Pipet 100 μL of Standards #1 through #6 into the appropriate wells. Pipet 100 μL of the Samples into the appropriate wells. Tap the plate gently to mix the contents. Seal the plate and incubate at room temperature on a plate shaker for 1 hour at ~500 rpm. Empty the contents of the wells and wash by adding 400 μL of wash solution to every well. Repeat the wash 4 more times for a total of 5 washes. After the final wash, empty or aspirate the wells and firmly tap the plate on a lint free paper towel to remove any remaining wash buffer. Pipet 100 μL of yellow Antibody into each well, except the Blank. Seal the plate and incubate at room temperature on a plate shaker for 1 hour at ~500 rpm. Empty the contents of the wells and wash by adding 400 μL of wash solution to every well. Repeat the wash 4 more times for a total of 5 washes. After the final wash, empty or aspirate the wells and firmly tap the plate on a lint free paper towel to remove any remaining wash buffer. Add 100 μL of blue Conjugate to each well, except the Blank. Seal the plate and incubate at room temperature on a plate shaker for 30 minutes at ~500 rpm. Empty the contents of the wells and wash by adding 400 μL of wash solution to every well. Repeat the wash 4 more times for a total of 5 washes. After the final wash, empty or aspirate the wells and firmly tap the plate on a lint free paper towel to remove any remaining wash buffer. Pipet 100 μL of Substrate Solution into each well. Incubate for 30 minutes at room temperature on a plate shaker at ~500 rpm. Pipet 100 μL Stop Solution to each well. Blank the plate reader against the Blank wells, read the optical density at 450 nm. Calculate the average net Optical Density (OD) bound for each standard and sample by subtracting the average Blank OD from the average OD for each standard and sample. Using linear graph paper, plot the Average Net OD for each standard versus Bax concentration in each standard. Approximate a straight line through the points. The concentration of Bax in the unknowns can be determined by interpolation.
# Bcl-2 = experiment: Apoptotic markers assay, Bcl-2 level in A-549 cells; format: cell-based, human; conditions: for Bcl-2 level: control 5
# Protocol: as §1, §2
# Mix all the reagents thoroughly without foaming before use. Wash the microwells twice with approximately 300 μL Wash Buffer per well with thorough aspiration of microwell contents between washes. Take caution not to scratch the surface of the microwells. After the last wash, empty the wells and tap microwell strips on absorbent pad or paper towel to remove excess Wash Buffer. Use the microwell strips immediately after washing or place upside down on a wet absorbent paper for not longer than 15 minutes. […] Add 100 μL of Sample Diluent in duplicate to all standard wells and to the blank wells. Prepare standard (1:2 dilution) in duplicate ranging from 32 ng/mL to 0.5 ng/mL. Add 100 μL of Sample Diluent, in duplicate, to the blank wells. Add 80 μL of Sample Diluent, in duplicate, to the sample wells. Add 20 μL of each Sample, in duplicate, to the designated wells. Add 50 μL of diluted biotin-conjugate to all wells, including the blank wells. Cover with a plate cover and incubate at room temperature, on a microplate shaker at 100 rpm if available, for 2 hours. Remove plate cover and empty the wells. Wash microwell strips 3 times as described in step 2. Add 100 μL of diluted Streptavidin-HRP to all wells, including the blank wells. Cover with a plate cover and incubate at room temperature, on a microplate shaker at 100 rpm if available, for 1 hour. Remove the plate cover and empty the wells. Wash microwell strips 3 times as described in step 2. Proceed to the next step. Pipette 100 μl of mixed TMB Substrate Solution to all wells, including the blanks. Incubate the microwell strips at room temperature (18° to 25°C) for about 15 minutes, if available on a rotator set at 100 rpm. Avoid direct exposure to intense light. The point, at which the substrate reaction is stopped, is often determined by the ELISA reader. Many ELISA readers record absorbance only up to 2.0 O.D. Therefore, the color development within individual microwells must be watched by the person running the assay and the substrate reaction stopped before positive wells are no longer properly detectable. Stop the enzyme reaction by quickly pipetting 100 μL of Stop Solution into each well, including the blank wells. It is important that the Stop Solution is spread quickly and uniformly throughout the microwells to completely inactivate the enzyme. Results must be read immediately after the Stop Solution is added or within one hour if the microwell strips are stored at 2 - 8°C in the dark. Read the absorbance of each microwell on a spectrophotometer using 450 nm as the primary wavelength.
# EGFR = EGFR (Homo sapiens, UniProt P00533); experiment: EGFR-TK inhibitory assay
# Protocol: To record autophosphorylation level, EGFR kinase assay was carried out on the basis of DELFIA/Time-Resolved Fluorometry. […] Each compound (10 μL) was incubated with recombinant enzyme (10 μL, 5 ng for EGFR, 1:80 dilution in 100 mM HEPES) for 10 min at 25 °C, subsequent to the addition of 5X buffer (10 μL, containing 2 mM MnCl2, 100 μM Na3VO4, 20 mM HEPES and 1 mM DTT) and ATP-MgCl2 (20 μL, containing 0.1 mM ATP and 50 mM MgCl2) and incubation for 1h. The negative and positive controls were included in each plate by the incubation of enzyme either with or without ATP-MgCl2. The liquid was removed after incubation and the plates were washed thrice using a wash buffer. The Europium-tagged antiphosphotyrosine antibody (75 μL, 400 ng) was added to each well followed by incubation of 1h and then washing of the plates using buffer. […] The autophosphorylation percentage inhibition by compounds was calculated using the following equation:
# The majority of signals detected by antiphosphotyrosine antibody were from EGFR because the enzyme preparation contained low impurities.
# [3] = test system: MCF-7 (breast) cancer cell line; experiment: Antiproliferative assay, MCF-7; format: cell-based, human; conditions: for IC50: read-out: Antiproliferative activity IC50 ± SEM, MCF-7; for Fold more potent than erlotinib (MCF-7 IC50): MCF-7 IC50 ratio to erlotinib
# Protocol: as §3, §4, §5, §6
# [4] = test system: Panc-1 (pancreatic) cancer cell line; experiment: Antiproliferative assay, Panc-1; format: cell-based, human; conditions: read-out: Antiproliferative activity IC50 ± SEM, Panc-1
# Protocol: as §3, §4, §5, §6
# [5] = test system: HT-29 (colon) cancer cell line; experiment: Antiproliferative assay, HT-29; format: cell-based, human; conditions: read-out: Antiproliferative activity IC50 ± SEM, HT-29
# Protocol: as §3, §4, §5, §6
# [6] = Cell viability assay (MTT) on normal cell line; conditions: human, MCF-10A normal mammary gland epithelial cells
# Protocol: (§7) The viability of the investigated compounds was assessed using the normal human mammary gland epithelial cell line MCF-10A. After four days of incubation on MCF-10A cells with 50 µM of each examined compound, cell viability was assessed using the MTT test[46]^,[47].
# (§8) The viability of 7a–o was determined using the normal human mammary gland epithelial (MCF-10A) cell line^46,[47].
# (§9) MTT assay was performed to investigate the effect of the synthesized compounds on mammary epithelial cells (MCF-10A). The cells were propagated in medium consisting of Ham's F-12 medium/ Dulbecco's modified Eagle's medium (DMEM) (1:1) supplemented with 10% foetal calf serum (GIBCO, UK), 2 mM glutamine, insulin (10 μg/mL), hydrocortisone (500 ng/mL) and epidermal growth factor (20 ng/mL). Trypsin ethylenediamine tetra acetic acid (EDTA) was used to passage the cells after every 2-3 days. 96-well flat-bottomed cell culture plates were used to seed the cells at a density of 10^4 cells mL^-1. The medium was aspirated from all the wells of culture plates after 24 h followed by the addition of synthesized compounds (in 200 μL medium to yield a final concentration of 0.1% (v/v) dimethyl sulfoxide) into individual wells of the plates. Four wells were designated to a single compound. The plates were allowed to incubate at 37°C for 96 h. Afterwards, the medium was aspirated and 3-[4,5-dimethylthiazol-2-yl]-2,5-diphenyltetrazolium bromide (MTT) (0.4 mg/mL) in medium was added to each well and subsequently incubated for 3 h. The medium was aspirated and 150 μL dimethyl sulfoxide (DMSO) was added to each well. The plates were vortexed followed by the measurement of absorbance at 540 nm on a microplate reader.
# VEGFR-2 = VEGFR-2 (Homo sapiens, UniProt P35968); experiment: VEGFR-2 kinase inhibitory assay
# Protocol: Prepare all the solutions using autoclaved, deionized water and analytical grade reagents. Prepare and store all the reagents at room temperature (unless indicated otherwise). […] The assays used an ULight-labeled peptide substrate and a Europium-W1024-labeled antiphosphotyrosine antibody. The VEGFR-2 was purchased from Carna Biosciences, Inc. (New York, USA). The 384-well plates were obtained from PerkinElmer. […] Negative control: 2.5 μL/well 4×substrate/ATP mixture and 7.5 μL 1×kinase assay buffer in 384-well plate well. […] After incubation at room temperature and dark for 60 min, 5 μL 4×stop solution was added to corresponding wells to react for 5 min and then 5 μL 4×detection mix was added to the corresponding wells of a 384-well plate. The mixture was centrifugally mixed and stayed for 60 min at room temperature for color development. The plate was read using an Envision plate reader. The inhibition rate (%) = (positive well reading-compound well reading)/(positive well reading-negative well reading)×100. The corresponding IC50 values were calculated using GraphPad Prism 5.0.
# VEGFR-2 kinase = conditions: read-out: VEGFR-2 kinase IC50; cited from earlier work
# EGFR^L858R = test system: EGFR^L858R; parameters: method as in PMID 26275028; conditions: cited from earlier work
# wild-type EGFR = test system: wild-type EGFR; parameters: method as in PMID 26275028; conditions: cited from earlier work
# EGFR^T790M = test system: EGFR^T790M; parameters: method as in PMID 26275028; conditions: cited from earlier work
# MCF-10A = conditions: 50 µM
# Protocol: as §7, §8, §9
# VEGFR-2, sequence (P35968 20-1356): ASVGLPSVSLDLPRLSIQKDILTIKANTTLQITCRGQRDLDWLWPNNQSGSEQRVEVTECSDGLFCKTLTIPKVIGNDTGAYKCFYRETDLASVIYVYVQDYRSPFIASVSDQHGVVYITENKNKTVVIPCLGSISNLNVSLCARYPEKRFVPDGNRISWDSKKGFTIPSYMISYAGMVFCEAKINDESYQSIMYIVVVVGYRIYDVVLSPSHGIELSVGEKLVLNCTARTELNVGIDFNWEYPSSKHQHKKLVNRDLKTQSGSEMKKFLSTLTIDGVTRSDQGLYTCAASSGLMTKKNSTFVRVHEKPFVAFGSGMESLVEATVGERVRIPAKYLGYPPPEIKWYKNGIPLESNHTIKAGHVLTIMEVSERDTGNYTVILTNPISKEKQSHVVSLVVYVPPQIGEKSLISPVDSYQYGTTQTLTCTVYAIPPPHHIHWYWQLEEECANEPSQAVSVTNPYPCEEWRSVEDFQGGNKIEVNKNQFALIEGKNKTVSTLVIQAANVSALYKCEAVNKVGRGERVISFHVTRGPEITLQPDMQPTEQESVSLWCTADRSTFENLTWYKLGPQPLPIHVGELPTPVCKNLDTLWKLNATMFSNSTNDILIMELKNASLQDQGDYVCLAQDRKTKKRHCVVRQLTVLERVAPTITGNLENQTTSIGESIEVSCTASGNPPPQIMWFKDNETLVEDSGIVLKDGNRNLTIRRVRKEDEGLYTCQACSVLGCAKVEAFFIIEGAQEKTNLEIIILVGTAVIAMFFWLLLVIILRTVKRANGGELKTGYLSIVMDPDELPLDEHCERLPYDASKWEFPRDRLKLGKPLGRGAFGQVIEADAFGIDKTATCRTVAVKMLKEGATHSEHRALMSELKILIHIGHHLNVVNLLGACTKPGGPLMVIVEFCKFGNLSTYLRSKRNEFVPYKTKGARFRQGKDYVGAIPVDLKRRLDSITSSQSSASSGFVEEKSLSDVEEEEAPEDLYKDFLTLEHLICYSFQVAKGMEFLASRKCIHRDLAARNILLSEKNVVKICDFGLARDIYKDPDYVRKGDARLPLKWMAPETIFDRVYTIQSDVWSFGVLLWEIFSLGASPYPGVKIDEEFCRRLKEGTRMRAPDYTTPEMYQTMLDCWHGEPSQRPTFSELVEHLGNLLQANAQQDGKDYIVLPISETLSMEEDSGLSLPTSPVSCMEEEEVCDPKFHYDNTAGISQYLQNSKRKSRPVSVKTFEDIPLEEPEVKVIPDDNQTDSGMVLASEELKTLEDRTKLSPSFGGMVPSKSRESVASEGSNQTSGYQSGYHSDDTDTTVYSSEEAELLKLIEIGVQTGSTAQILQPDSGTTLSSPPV
compound,measurement,setting,value
"CCS(=O)(=O)c1ccc2[nH]nc(C(=O)N/N=C/c3nc4ccccc4s3)c2c1 [Compound 7j, (E)-N′-(benzo[d]thiazol-2-ylmethylene)-5-(ethylsulfonyl)-1H-indazole-3-carbohydrazide]",p53 level,p53,340 ± 2 pg/mL
same,IC50,"[1]; Homo sapiens, A549",26 ± 1 nM
same,IC50,[2]; Homo sapiens,27 nM
same,Bax level,Bax,505 ± 3 pg/mL
same,Bax fold change,Bax,8 fold and 8.5 fold
same,Bcl-2 level,Bcl-2,1.50 ± 0.001 ng/mL
same,IC50,EGFR; EGFR inhibition IC50 ± SEM,74 ± 4 nM
same,IC50,"[3]; Homo sapiens, MCF7",28 ± 1 nM
same,IC50,"[4]; Homo sapiens, PANC-1",26 ± 1 nM
same,IC50,[5]; Homo sapiens,27 ± 1 nM
same,"viability at 96 h, 50 µM",[6],91%
same,IC50,VEGFR-2,27 ± 1 nM
"CCS(=O)(=O)c1ccc2[nH]nc(C(=O)N/N=C/c3ccc(OC)nc3)c2c1 [Compound 7k, (E)-5-(ethylsulfonyl)-N′-((6-methoxypyridin-3-yl)methylene)-1H-indazole-3-carbohydrazide]",p53 level,p53,371 ± 2 pg/mL
same,IC50,"[1]; Homo sapiens, A549",24 ± 1 nM
same,Fold more effective than erlotinib (GI50),[2]; GI50 ratio to erlotinib,1.3 fold
same,IC50,[2]; Homo sapiens,25 nM
same,Bax level,Bax,540 ± 3 pg/mL
same,Bax fold change,Bax,9 fold
same,Bcl-2 level,Bcl-2,1.20 ± 0.001 ng/mL
same,Bcl-2 fold reduction,Bcl-2; relative to untreated control,4.2 fold
same,IC50,EGFR; EGFR inhibition IC50 ± SEM,71 ± 4 nM
same,IC50,"[3]; Homo sapiens, MCF7",26 ± 1 nM
same,Fold more potent than erlotinib (MCF-7 IC50),[3],1.5 fold
same,IC50,"[4]; Homo sapiens, PANC-1",25 ± 1 nM
same,IC50,[5]; Homo sapiens,24 ± 1 nM
same,"viability at 96 h, 50 µM",[6],93%
same,IC50,VEGFR-2,21 ± 1 nM
"CCS(=O)(=O)c1ccc2[nH]nc(C(=O)N/N=C/c3ccn(C)n3)c2c1 [Compound 7o, (E)-5-(ethylsulfonyl)-N′-((1-methyl-1H-pyrazol-3-yl)methylene)-1H-indazole-3-carbohydrazide]",p53 level,p53,285 ± 2 pg/mL
same,IC50,"[1]; Homo sapiens, A549",29 ± 1 nM
same,IC50,[2]; Homo sapiens,30 nM
same,Bax level,Bax,480 ± 2 pg/mL
same,Bax fold change,Bax,8 fold
same,Bcl-2 level,Bcl-2,1.80 ± 0.001 ng/mL
same,IC50,EGFR; EGFR inhibition IC50 ± SEM,76 ± 4 nM
same,IC50,"[3]; Homo sapiens, MCF7",32 ± 1 nM
same,Fold more potent than erlotinib (MCF-7 IC50),[3],1.25 fold
same,IC50,"[4]; Homo sapiens, PANC-1",29 ± 1 nM
same,IC50,[5]; Homo sapiens,29 ± 1 nM
same,"viability at 96 h, 50 µM",[6],92%
same,IC50,VEGFR-2,31 ± 2 nM
CN(c1ccc2cn(C)nc2c1)c1ccnc(Nc2ccc(OC(F)(F)F)cc2)n1 [Compound IX],IC50,VEGFR-2 kinase,12 nM
C=CC(=O)Nc1cccc(Oc2nc(Nc3n[nH]c4ccccc34)cc(N3CCN(C)CC3)n2)c1 [Compound VIII],IC50,EGFR^L858R,500 nM
same,IC50,wild-type EGFR,1700 nM
same,IC50,EGFR^T790M,70 nM
(E)-5-(ethylsulfonyl)-N′-(3-methoxybenzylidene)-1H-indazole-3-carbohydrazide [Compound 7l],IC50,[1]; A-549,41 ± 3 nM
same,Fold less potent than 7k (GI50),[2]; GI50 ratio to 7k,1.7 fold
same,IC50,[2],42 nM
same,IC50,EGFR; read-out: EGFR inhibition IC50 ± SEM,87 ± 5 nM
same,IC50,[3]; MCF-7,43 ± 3 nM
same,IC50,[4]; Panc-1,42 ± 4 nM
same,Cell viability %,MCF-10A,91%
same,IC50,[5],42 ± 4 nM
same,IC50,"VEGFR-2; read-out: VEGFR-2 inhibition IC50 ± SEM, kinase assay",45 ± 3 nM

# — publication PMC12897534, “Design, synthesis, and antiproliferative activity of new 5-ethylsulfonyl-indazole-3-carbohydrazides as dual EGFR/VEGFR-2 kinases inhibitors” (Journal of Enzyme Inhibition and Medicinal Chemistry, 2025)
